From ChEMBL document CHEMBL1201862, “PubChem BioAssay data set” (2004)
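48-hour exposure; five concentrations; linearly interpolated endpoints. GI50: concentration for 50% inhibition of growth.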 Activity calls are given as the source filed them. Rule as the data show it: active = GI50 up to about 1.1 µM and inactive = higher. Square brackets hold non-standard residues; d marks the D form. Peptide text beside a SMILES is read from it. * marks the point of attachment. X26 = COC1=CC(=O)N(C(=O)[C@@H](O*)C(C)C)[C@H]1Cc1ccccc1; Bn2Val = CC(C)[C@@H](C(=O)*)N(Cc1ccccc1)Cc1ccccc1; NMeV = CN[C@H](C(=O)O)C(C)C; dNMeA = CN[C@H](C)C(=O)O

What was measured:
Test in all cases: DTP human tumour cell line panel, 48 h
A498 = system: A498
A549 = system: A549
BT-549 = system: BT-549
HL-60 = system: HL-60
HOP-62 = system: HOP-62
Hs-578T = system: Hs-578T
KM12 = system: KM12
LOX IMVI = system: LOX IMVI
MDA-MB-435 = system: MDA-MB-435
Malme-3M = system: Malme-3M
NCI-H226 = system: NCI-H226
NCI/ADR-RES = system: NCI/ADR-RES
RXF 393 = system: RXF 393
SF-268 = system: SF-268
SK-MEL-28 = system: SK-MEL-28
SNB-19 = system: SNB-19
SR = system: SR
NCI-H522 = system: NCI-H522
SF-295 = system: SF-295

With C[C@]12CC(c3ccccc3O1)C(C#N)C(=O)N2 (some centres undefined) the GI50 (A498) was > 100 µM (inactive), the GI50 (A549) was > 100 µM (inactive) and the GI50 (BT-549) was > 100 µM (inactive). The GI50 (HL-60) was > 100 µM (inactive), the GI50 (HOP-62) was > 100 µM (inactive) and the GI50 (Hs-578T) was > 100 µM (inactive). The GI50 (KM12) was > 100 µM (inactive), the GI50 (LOX IMVI) was > 100 µM (inactive) and the GI50 (MDA-MB-435) was > 100 µM (inactive). For the same molecule, the GI50 (Malme-3M) was > 100 µM (inactive), the GI50 (NCI-H226) was > 100 µM (inactive) and the GI50 (NCI/ADR-RES) was > 100 µM (inactive). The GI50 (RXF 393) was > 100 µM (inactive), the GI50 (SF-268) was > 100 µM (inactive) and the GI50 (SK-MEL-28) was > 100 µM (inactive). The GI50 (SNB-19) was > 100 µM (inactive) and the GI50 (SR) was > 100 µM (inactive).
In the case of COc1cccc(N2CCc3c(C)c(C#N)c4nc5ccccc5n4c32)c1, the GI50 (A498) is reported as > 100 µM (inactive), the GI50 (A549) is reported as > 100 µM (inactive) and the GI50 (BT-549) is reported as > 100 µM (inactive). For the same molecule, the GI50 (HL-60) was > 100 µM (inactive), the GI50 (HOP-62) was > 100 µM (inactive) and the GI50 (Hs-578T) was 16.2 µM (inactive). The GI50 (LOX IMVI) was > 100 µM (inactive), the GI50 (MDA-MB-435) was > 100 µM (inactive) and the GI50 (Malme-3M) was > 100 µM (inactive). For the same molecule, the GI50 (NCI-H226) was > 100 µM (inactive), the GI50 (NCI-H522) was 15.3 µM (inactive) and the GI50 (NCI/ADR-RES) was > 100 µM (inactive). For the same molecule, the GI50 (RXF 393) was 45.1 µM (inactive), the GI50 (SF-268) was 43.7 µM (inactive) and the GI50 (SF-295) was > 100 µM (inactive). For the same molecule, the GI50 (SK-MEL-28) was > 100 µM (inactive) and the GI50 (SNB-19) was 39.3 µM (inactive).
Cn1c(=O)n2n(c1=O)C(S(=O)(=O)c1ccccc1)C2 (centres undefined) was tested, and the GI50 (A549) was > 100 µM (inactive), the GI50 (BT-549) was > 100 µM (inactive) and the GI50 (HOP-62) was > 100 µM (inactive). For the same molecule, the GI50 (Hs-578T) was > 100 µM (inactive), the GI50 (KM12) was > 100 µM (inactive) and the GI50 (LOX IMVI) was > 100 µM (inactive). For the same molecule, the GI50 (MDA-MB-435) was > 100 µM (inactive), the GI50 (Malme-3M) was > 100 µM (inactive) and the GI50 (NCI-H522) was > 100 µM (inactive). The GI50 (NCI/ADR-RES) was > 100 µM (inactive), the GI50 (RXF 393) was > 100 µM (inactive) and the GI50 (SF-268) was > 100 µM (inactive). The GI50 (SF-295) was > 100 µM (inactive), the GI50 (SK-MEL-28) was > 100 µM (inactive) and the GI50 (SNB-19) was > 100 µM (inactive).
With CCOC(=O)c1nc2ccccc2nc1Oc1ccc(C#N)cc1 the GI50 (A498) was > 100 µM (inactive), the GI50 (A549) was > 100 µM (inactive) and the GI50 (BT-549) was > 100 µM (inactive). The GI50 (HL-60) was > 100 µM (inactive), the GI50 (HOP-62) was > 100 µM (inactive) and the GI50 (Hs-578T) was > 100 µM (inactive). For the same molecule, the GI50 (KM12) was > 100 µM (inactive), the GI50 (LOX IMVI) was > 100 µM (inactive) and the GI50 (MDA-MB-435) was > 100 µM (inactive). For the same molecule, the GI50 (Malme-3M) was > 100 µM (inactive), the GI50 (NCI-H226) was > 100 µM (inactive) and the GI50 (NCI/ADR-RES) was > 100 µM (inactive). The GI50 (RXF 393) was > 100 µM (inactive), the GI50 (SF-268) was > 100 µM (inactive) and the GI50 (SF-295) was > 100 µM (inactive). For the same molecule, the GI50 (SK-MEL-28) was > 100 µM (inactive) and the GI50 (SNB-19) was > 100 µM (inactive).
O=c1[nH]c2c(C(F)(F)F)c(Cl)c(-c3ccccc3)nc2o1 was tested, and the GI50 (A498) was 57.8 µM (inactive), the GI50 (A549) was 19.8 µM (inactive) and the GI50 (BT-549) was 15.7 µM (inactive). For the same molecule, the GI50 (HL-60) was 1.41 µM (inactive), the GI50 (HOP-62) was 35.4 µM (inactive) and the GI50 (Hs-578T) was 55.6 µM (inactive). The GI50 (KM12) was 26.7 µM (inactive), the GI50 (LOX IMVI) was 27.1 µM (inactive) and the GI50 (MDA-MB-435) was 28.3 µM (inactive). The GI50 (NCI-H226) was 30.3 µM (inactive), the GI50 (NCI-H522) was 32.1 µM (inactive) and the GI50 (NCI/ADR-RES) was 16.6 µM (inactive). The GI50 (RXF 393) was 21.5 µM (inactive), the GI50 (SF-268) was 54.7 µM (inactive) and the GI50 (SF-295) was 13.3 µM (inactive). For the same molecule, the GI50 (SK-MEL-28) was 22.8 µM (inactive) and the GI50 (SNB-19) was 25.5 µM (inactive).
In the case of N#Cc1sc2c(c1OC(=O)c1ccccc1)c(=O)n(-c1ccccc1)c(=S)n2-c1ccccc1, the GI50 (A549) is reported as 29.3 µM (inactive), the GI50 (BT-549) is reported as 23.8 µM (inactive) and the GI50 (HL-60) is reported as 24.4 µM (inactive). The GI50 (HOP-62) was 18.2 µM (inactive), the GI50 (Hs-578T) was 14.8 µM (inactive) and the GI50 (KM12) was 19.5 µM (inactive). The GI50 (LOX IMVI) was 19.8 µM (inactive), the GI50 (MDA-MB-435) was 24 µM (inactive) and the GI50 (Malme-3M) was 20.5 µM (inactive). The GI50 (NCI-H226) was 18.1 µM (inactive), the GI50 (NCI-H522) was 13.8 µM (inactive) and the GI50 (NCI/ADR-RES) was 21 µM (inactive). The GI50 (RXF 393) was 14.3 µM (inactive), the GI50 (SF-268) was 33.5 µM (inactive) and the GI50 (SF-295) was 28.2 µM (inactive). For the same molecule, the GI50 (SK-MEL-28) was 25.7 µM (inactive), the GI50 (SNB-19) was 36.1 µM (inactive) and the GI50 (SR) was 30.8 µM (inactive).
In the case of Cc1cc(-c2nc3ccccc3s2)ccc1NS(=O)(=O)O, the GI50 (A498) is reported as 65.9 µM (inactive), the GI50 (A549) is reported as > 5.82 µM (inactive) and the GI50 (BT-549) is reported as 0.544 µM (active). For the same molecule, the GI50 (Hs-578T) was > 6.28 µM (inactive), the GI50 (KM12) was > 4.65 µM (inactive) and the GI50 (LOX IMVI) was > 4.65 µM (inactive). For the same molecule, the GI50 (MDA-MB-435) was > 7.08 µM (inactive), the GI50 (Malme-3M) was > 6.56 µM (inactive) and the GI50 (NCI-H226) was > 39.9 µM (inactive). For the same molecule, the GI50 (NCI/ADR-RES) was > 7.1 µM (inactive), the GI50 (SF-268) was > 9.64 µM (inactive) and the GI50 (SF-295) was > 43.1 µM (inactive). The GI50 (SK-MEL-28) was > 42 µM (inactive), the GI50 (SNB-19) was > 24.4 µM (inactive) and the GI50 (SR) was 4.34 µM (inactive).
COC1=CC(=O)N(C(=O)[C@@H](OC(=O)[C@@H](C)N(C)C(=O)[C@@H]2CCCN2C(=O)[C@H](C(C)C)N(C)C(=O)[C@@H](NC(=O)[C@H](C(C)C)N(Cc2ccccc2)Cc2ccccc2)C(C)C)C(C)C)[C@H]1Cc1ccccc1 (Bn2Val-V[NMeV]P[dNMeA]-X26) was tested, and the GI50 (A498) was 38.2 µM (inactive), the GI50 (A549) was > 100 µM (inactive) and the GI50 (BT-549) was > 100 µM (inactive). The GI50 (HOP-62) was > 57.3 µM (inactive), the GI50 (Hs-578T) was > 100 µM (inactive) and the GI50 (KM12) was > 31.3 µM (inactive). For the same molecule, the GI50 (LOX IMVI) was > 100 µM (inactive), the GI50 (MDA-MB-435) was > 100 µM (inactive) and the GI50 (Malme-3M) was > 59.6 µM (inactive). For the same molecule, the GI50 (NCI-H226) was > 26.3 µM (inactive), the GI50 (NCI-H522) was > 100 µM (inactive) and the GI50 (NCI/ADR-RES) was > 100 µM (inactive). The GI50 (RXF 393) was > 26.2 µM (inactive), the GI50 (SF-268) was > 100 µM (inactive) and the GI50 (SF-295) was > 71.3 µM (inactive). The GI50 (SK-MEL-28) was > 100 µM (inactive), the GI50 (SNB-19) was > 90.2 µM (inactive) and the GI50 (SR) was > 100 µM (inactive).
